Literature values, collected in patent US20060275504A1, “Methods and compositions for augmenting cancer chemotherapeutic agents” (TTY BIOPHARM COMPANY LIMITED, priority 2005, published 2006).

In the case of `O=C1O[C@H]([C@@H](O)CO)C(O)=C1O` [Ascorbic acid], the “concentration exhibiting cytotoxic activity” value (MCF-7; MCF-7, ascorbic acid alone) is given as 10^2-10^3 μM, the “effect on cytotoxicity of DOX, DDP and TX” value (MCF-7; MCF-7, ascorbic acid at non-cytotoxic (1 μM) and moderately cytotoxic (10^2 μM) concentration) is given as “improved the cytotoxicity of DOX, DDP and TX significantly” and the “concentration exhibiting cytotoxic activity” value (MDA-MB-231; MDA-MB-231, ascorbic acid alone) is given as 10^2-10^3 μM. The “effect on cytotoxicity of DOX, DDP and TX” value (MDA-MB-231; MDA-MB-231, ascorbic acid at non-cytotoxic (1 μM) and moderately cytotoxic (10^2 μM) concentration) was “improved the cytotoxicity of DOX, DDP and TX significantly”.

For arsenic trioxide, the “complete remission (CR) rate” value (intravenously 10 mg/d, patients with relapsed acute promyelocytic leukemia) is listed as 90%.

In the case of `S1[As]2S[As]3S[As]2S[As]13` [As4S4, tetraarsenic tetraslfide], the complete remission rates (arsenic-containing substances other than arsenic trioxide (Wang Z. Y. 2001)) is given as 84.9%.
